One data set has as its system CsOMT21. Description: O-methyltransferase enzyme assay with recombinant CsOMT21. Conditions: 1 mM substrate, [14C]-SAM, 30 min at 37° C. The data set is classed as biochemical, Cannabis sativa.
The next data set concerns CsOMT6. The data set is described as follows: O-methyltransferase enzyme assay with recombinant CsOMT6. It counts as biochemical, Cannabis sativa. Conditions: 1 mM substrate, [14C]-SAM, 30 min at 37° C.
Data set [1] deals with human leukemia cell line HL60. The conditions noted are these: cited from earlier work.
In data set [2] the test system is colon cancer cell line SW480. The conditions noted are these: cited from earlier work.
A further data set deals with sarcoma S-180. The conditions noted are these: cited from earlier work.
A further data set deals with CsOMT1. Description: O-methyltransferase enzyme assay with recombinant CsOMT1. The conditions noted are these: compound as substrate, 1 mM, [14C]-SAM methyl donor, relative to dihydroresveratrol. It counts as biochemical, Cannabis sativa.
Substrate in data set [3]: Oc1ccc(CCc2cc(O)cc(O)c2)cc1
Description: Enzyme kinetics (Michaelis-Menten) of recombinant CsOMT1 O-methyltransferase with dihydroresveratrol as substrate (FIG. 6C). The data set is classed as biochemical, Cannabis sativa. Conditions: other: substrate dihydroresveratrol, standard assay conditions (50 mM Tris-HCl, pH 7.5, 5 mM MgCl2, 10% glycerol, 37° C, [14C]-SAM methyl donor), non-linear regression, Michaelis-M. The method, then:
FIG. 6. Enzymatic methylation activity of CsOMT1. (A) Reaction catalyzed by CsOMT1. (B) Representative chromatogram showing the reaction products resolved by HPLC that illustrates the separation of the methylated dihydroresveratrol from its corresponding substrate (dihydroresveratrol, DHR). The identity of 3-O-methyl-dihydroresveratrol (pinobistilbene) was structurally determined by NMR. (C) Kinetic analysis of CsOMT1. Recombinant CsOMT1 was assayed under standard assay conditions at the indicated concentrations of dihydroresveratrol. Kinetic parameters were determined by non-linear regression analysis using the Michaelis-Menten kinetics model of the SigmaPlot 12.3 software.
Expression of recombinant prenyltransferases in E. coli. In typical aspects, open reading frames encoding soluble aromatic prenyltransferases from bacteria or fungi, for example NphB, HypSC, CloQ, NovQ, Fur7, or PpzP are synthesized commercially. […]
Recombinant protein expression of CsOMTs in E. coli. Open reading frames corresponding to O-methyltransferases from C. sativa are synthesized by commercially. […]
O-methyltransferase enzyme assays. […] The enzymatic products are extracted with four volumes of ethyl acetate and quantified using a scintillation counter. […] The eluted products are detected by absorption at the 210-350 nm range and quantified relative to authentic standards. […]

Where two headings read alike, the source gives them in different places.

`O=c1cc(-c2ccc(O)c(O)c2)oc2cc(O)cc(O)c12` [luteolin]: in the data set with CsOMT21, the methylation of substrate result is listed as “able to methylate”.
In the case of `O=c1c(O)c(-c2ccc(O)c(O)c2)oc2cc(O)cc(O)c12` [quercetin], the methylation of substrate entry in the data set on CsOMT6 is given as “preferred methylation”; in the data set with CsOMT21, “able to methylate”.
As for `CC(C)=CCc1cc(/C=C/C(=O)O)cc(CC=C(C)C)c1O` [artepillin C], the apoptotic events entry in data set [1] and in data set [2] was “induce apoptotic events” in each case. For the same molecule, in the data set with sarcoma S-180 (mouse, in vivo, po), the tumor growth result is reported as “significant reduction in tumor growth”.
`COc1cc(O)cc(CCc2cccc(O)c2)c1` [batatasin III]: the “O-methyltransferase activity relative to that with DHR” value in the data set on CsOMT1 was “about 25%”.
With `CC(C)=CCc1cc(/C=C/C(=O)O)ccc1O` [drupanin], the apoptotic events result in data set [1] (HL60 (Akao et al 2008)) and in data set [2] (SW480 (Akao et al 2008)) was “induce apoptotic events” throughout. In addition, in the data set with sarcoma S-180 (oral administration, mice with sarcoma S-180 (Mishima et al 2005)), the tumor growth entry is reported as “significant reduction in tumor growth”.

B1: CsOMT1 (recombinant O-methyltransferase, SEQ ID NO: 7, PK03555; 6×His-tagged, expressed in E. coli) (Cannabis sativa) (protein)
chain: MEADGEDAVLRGQVEIWKYMLSFADSMALKCAVELQLADIIHSHTSPITLSQIASAIPGATSPDLSCLARIMRLLVRRRIFTQHQKPKSDGEEEEALYGPTHSSRWLLTKTNDHDQLTLAPMILMENDPRLMAPWHCFSRCVKEGGVAFKKAHNGQSIWEFGAENPEINKLFNDAMECTAKVVMKAILSHYSDGGFSDIKSMVDVGGGTGGSISEIVRSYPHIKGINFDLPHVIATAPPYSGVSHVGGDMFRSVPTADAIFMKWILHDWSDEDCVKILKNCRKAIAEESGKVIIVESVLEEESNNNNNNNEVFGDTALMLDLVMVAHTTGGKERTQKQWKTILEQGGFPRYNFIKIKALPSIIEAYPN
On to B1, for which, in data set [3], the Km – broadly, the concentration of substrate that gives half-maximal velocity – turned out to be 22.2 ± 4.6 µM.

The values are drawn from patent US20240026314A1, “POLYPEPTIDES FOR USE IN THE SYNTHESIS OF BIOACTIVE PHENOLIC COMPOUNDS” (priority 2020, published 2024).
